From PMC6315506 (Viruses, 2018)
pIC50, pKd: −log10 of the molar value. Like-named read-outs stand apart in the source and are kept apart here.

Experiments:
EBOV = conditions: cited from earlier work
Ebola glycoprotein = conditions: cited from earlier work
HIV-1/EBOV pseudovirus [1] = experiment: microbe, parasite or virus in culture; conditions: Zaire ebolavirus, A549, read-out: IC50 (anti-HIV-1/EBOV)
in vitro = conditions: human
HIV-1/H5N1 pseudovirus = experiment: organism not typed; format: cell-based, influenza A virus A/Goose/Qinghai/59/05 (H5N1); conditions: A549, 48 h, read-out: Inhibition HIV-1/H5N1
HIV-1/EBOV pseudovirus [2] = experiment: organism not typed; conditions: A549, 48 h, read-out: Inhibition HIV-1/EBOV
HIV-1/LASV pseudovirus = experiment: microbe, parasite or virus in culture; format: cell-based; conditions: Human immunodeficiency virus 1, A549, 48 h, read-out: Inhibition HIV-1/LASV
HIV-1/EBOV pseudovirus [3] = test system: HIV-1/EBOV pseudovirus
[4] = test system: EBOV Mayinga isolate (EBOV-GFP); experiment: microbe, parasite or virus in culture; format: cell-based, Ebola virus; conditions: for pIC50: read-out: IC50 against replication of infectious EBOV

CCN(CC)CC(=O)NCc1cc(-c2ccc(I)cc2)no1 [3,5-Disubstituted isoxazole]
pIC50 (EBOV): 5.60

CN(C)CCOc1ccc(/C(=C(/CCCl)c2ccccc2)c2ccccc2)cc1 [Toremifene]
pKd (Ebola glycoprotein): 4.80

FC(F)C(F)(F)C1=Nc2ccccc2N=C(c2ccccc2)C1 [benzodiazepine]
IC90 (EBOV): 3500 nM

CN(C)Cc1ccc(-c2cc3cc(Br)ccc3nc2OCc2ccc(Cl)cc2)cc1 [SYL1712]
pIC50 (HIV-1/EBOV pseudovirus [1]): ~6.00 | viability at 10 µM (in vitro): 96.9% | inhibition at 10 µM (HIV-1/H5N1 pseudovirus): 5.75% | inhibition at 10 µM (HIV-1/EBOV pseudovirus [2]): 99.4% | inhibition at 10 µM (HIV-1/LASV pseudovirus): 55.4% | SI (CC50/IC50) (HIV-1/EBOV pseudovirus [3]): 225.9 | pIC50 (HIV-1/EBOV pseudovirus [3]; read-out: IC50 (anti-HIV-1/EBOV)): 6.02 | selective index (SI) [4]: 37.2 | pIC50 ([4]; Zaire ebolavirus, HeLa, 24 h): 5.70 | pIC50 [4]: 5.70

O=c1oc2c(O)c(O)cc3c(=O)oc4c(O)c(O)cc1c4c23 [Ellagic acid]
pIC50 (EBOV): 5.85

COc1ccc(S(=O)(=O)N(CC(=O)Nc2ccccc2-c2ccccc2)c2ccc(C)cc2)cc1 [MBX 2254]
IC90 (EBOV): 3000 nM
